Assay results reported in patent US20250171462A1 (NICO Therapeutics, Inc., priority 2022, published 2025).
Like-named read-outs stand apart in the source and are kept apart here.

Biological target: T1, full-length SARM1 (FL-SARM1) (Homo sapiens, UniProt Q6SZW1)
T1 sequence (Q6SZW1 28-724): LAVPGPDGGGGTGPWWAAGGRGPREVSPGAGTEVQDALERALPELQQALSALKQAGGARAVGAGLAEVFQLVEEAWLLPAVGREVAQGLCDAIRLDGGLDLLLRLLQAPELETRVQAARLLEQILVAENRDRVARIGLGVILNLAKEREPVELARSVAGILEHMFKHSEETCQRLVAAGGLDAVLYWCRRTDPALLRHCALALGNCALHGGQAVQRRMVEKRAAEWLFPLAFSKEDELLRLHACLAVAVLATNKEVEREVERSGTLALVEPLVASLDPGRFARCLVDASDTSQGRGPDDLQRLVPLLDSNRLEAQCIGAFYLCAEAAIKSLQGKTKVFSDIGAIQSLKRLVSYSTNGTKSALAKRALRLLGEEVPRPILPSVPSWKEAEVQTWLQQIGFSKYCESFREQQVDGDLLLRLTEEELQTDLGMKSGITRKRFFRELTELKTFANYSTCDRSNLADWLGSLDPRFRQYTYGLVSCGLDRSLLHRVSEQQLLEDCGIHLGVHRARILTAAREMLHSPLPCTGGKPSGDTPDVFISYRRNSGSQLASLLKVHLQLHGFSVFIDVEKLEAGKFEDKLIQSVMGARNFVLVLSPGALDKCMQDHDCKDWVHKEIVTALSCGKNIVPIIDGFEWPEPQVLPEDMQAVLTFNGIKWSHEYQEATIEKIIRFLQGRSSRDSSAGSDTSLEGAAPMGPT
Experiment: FL-SARM1 cellular lysate assay (NAD/NADH-Glo detection of remaining NAD+, NMN-activated)

[1] = Activity (IC50 class), 11 point curve
[2] = Activity (μM) (IC50), 11 point curve
[3] = read-out: Activity (IC50 class), 11 point curve

SMILES	IC50 [1]	IC50 [2]	IC50 [3]
Cc1ccc(NC(=O)C(C)(C)C)cc1-c1ccccn1 [Example 141, 2,2-dimethyl-N-(4-methyl-3-pyridin-2-ylphenyl)propanamide]	> 10 µM	19 µM	–
Cc1ccc(NC(=O)C2CC3CC3CN2c2ccccn2)cc1-c1ncc(F)cn1 (mixture of isomers) [Example 260, N-(3-(5-fluoropyrimidin-2-yl)-4-methylphenyl)-3-(pyridin-2-yl)-3-azabicyclo[4.1.0]heptane-4-carboxamide]	1 to 10 µM	1.3 µM	–
Cc1ccc(NC(=O)[C@@H]2CN(CC(F)(F)F)C[C@H]2c2ccccn2)cc1-c1ncc(F)cn1 (racemic) [Example 280, trans-N-[3-(5-fluoropyrimidin-2-yl)-4-methylphenyl]-4-pyridin-2-yl-1-(2,2,2-trifluoroethyl)pyrrolidine-3-carboxamide]	> 10 µM	28 µM	–
Cc1ccc(NC(=O)[C@@H]2C[C@@H]3C[C@@H]3C2)cc1-c1ncc(F)cn1 [Example 325]	1 to 10 µM	1.2 µM	–
COC(C)[C@@]12CC(C[C@@H](C)C1)N2C(=O)Nc1ccc(C(F)(F)F)c(-c2nccnn2)c1 (single isomer, unassigned) [Example 209, cis-N-(3-(1,2,4-triazin-3-yl)-4-(trifluoromethyl)phenyl)-1-(1-methoxyethyl)-3-methyl-6-azabicyclo[3.1.1]heptane-6-carboxamide]	–	0.5 µM	0.0001 to 1 µM
Cc1ccc(NC(=O)N2C3CCCC2C3)cc1-c1ncc(F)cn1 [Example 55, N-(3-(5-fluoropyrimidin-2-yl)-4-methylphenyl)-6-azabicyclo[3.1.1]heptane-6-carboxamide]	–	0.2 µM	0.0001 to 1 µM
Cc1ccc(NC(=O)[C@H]2C[C@@H]2C2CC2)cc1-c1cccnn1 (racemic) [Example 283, trans-2-cyclopropyl-N-(4-methyl-3-pyridazin-3-ylphenyl)cyclopropane-1-carboxamide]	> 10 µM	11 µM	–
CCO[C@@H]1CC2C[C@H](C1)N2C(=O)Nc1ccc(C)c(-c2ccccn2)c1 [Example 84, cis-3-ethoxy-N-(4-methyl-3-(pyridin-2-yl)phenyl)-6-azabicyclo[3.1.1]heptane-6-carboxamide]	1 to 10 µM	1.6 µM	–
O=C(Nc1ccc(C(F)F)c(-c2ccccn2)c1)[C@@H]1CC1(F)F [Example 126, (1S)-N-[4-(difluoromethyl)-3-pyridin-2-ylphenyl]-2,2-difluorocyclopropane-1-carboxamide]	1 to 10 µM	2.5 µM	–
Cc1ccc(NC(=O)[C@H]2CC[C@@H](C)N2c2ncccn2)cc1-c1ncc(F)cn1 [Example 287, (2R,5R)-N-[3-(5-fluoropyrimidin-2-yl)-4-methylphenyl]-5-methyl-1-pyrimidin-2-ylpyrrolidine-2-carboxamide]	1 to 10 µM	2.1 µM	–
Cc1ccc(NC(=O)[C@@H]2CC2(F)F)cc1-c1ccccn1 [Example 142, (1S)-2,2-difluoro-N-(4-methyl-3-pyridin-2-ylphenyl)cyclopropane-1-carboxamide]	1 to 10 µM	2.6 µM	–
CCc1ccnc(-c2cc(NC(=O)N3C4C[C@@H](C)C[C@H]3C4)ccc2C)n1 [Example 237, cis-N-[3-(4-ethylpyrimidin-2-yl)-4-methylphenyl]-3-methyl-6-azabicyclo[3.1.1]heptane-6-carboxamide]	1 to 10 µM	1.1 µM	–
COc1cccnc1-c1cc(NC(=O)N2C3CCCC2C3)ccc1C [Example 58, N-(3-(3-methoxypyridin-2-yl)-4-methylphenyl)-6-azabicyclo[3.1.1]heptane-6-carboxamide]	> 10 µM	12 µM	–
CCOC(C)[C@@]12CC(C[C@@H](C)C1)N2C(=O)Nc1ccc(C)c(-c2ncc(F)cn2)c1 (single isomer, unassigned) [Example 188, cis-1-(1-ethoxyethyl)-N-(3-(5-fluoropyrimidin-2-yl)-4-methylphenyl)-3-methyl-6-azabicyclo[3.1.1]heptane-6-carboxamide]	–	0.003 µM	0.0001 to 1 µM
Cc1ccc(NC(=O)[C@H]2C[C@H]3C[C@H]3N2c2ncc(Cl)nn2)cc1-c1ncc(F)cn1 [Example 263, (1R,3R,5R)-2-(6-chloro-1,2,4-triazin-3-yl)-N-[3-(5-fluoropyrimidin-2-yl)-4-methylphenyl]-2-azabicyclo[3.1.0]hexane-3-carboxamide]	1 to 10 µM	1.8 µM	–
Cc1ccc(NC(=O)N2C3CCCC2C3)cc1-c1ncc(Cl)cn1 [Example 252, N-[3-(5-chloropyrimidin-2-yl)-4-methylphenyl]-6-azabicyclo[3.1.1]heptane-6-carboxamide]	–	0.5 µM	0.0001 to 1 µM

SMILES	IC50 [1]	IC50 [2]	IC50 [3]
Cc1ccc(NC(=O)N2CCC[C@H]2c2ccccc2)cc1-c1ccccn1 [Example 96, (2S)-N-(4-methyl-3-pyridin-2-ylphenyl)-2-phenylpyrrolidine-1-carboxamide]	–	0.7 µM	0.0001 to 1 µM
Cc1ccc(NC(=O)N2C3CCCC2C3)cc1-c1ncccc1C1CC1 [Example 32, N-(3-(3-cyclopropylpyridin-2-yl)-4-methylphenyl)-6-azabicyclo[3.1.1]heptane-6-carboxamide]	1 to 10 µM	6.1 µM	–
N#CCc1ccc(NC(=O)[C@@H]2CC2(F)F)cc1-c1ccccn1 [Example 145, (1S)-N-[4-(cyanomethyl)-3-pyridin-2-ylphenyl]-2,2-difluorocyclopropane-1-carboxamide]	1 to 10 µM	5 µM	–
Cc1ccc(NC(=O)N2C3CCCC2C3)cc1-c1ccccn1 [Example 17, N-(4-methyl-3-(pyridin-2-yl)phenyl)-6-azabicyclo[3.1.1]heptane-6-carboxamide]	–	0.1 µM	0.0001 to 1 µM
COc1cncc(-c2cc(NC(=O)N3C4C[C@@H](C)C[C@H]3C4)ccc2C)n1 [Example 218, cis-N-(3-(6-methoxypyrazin-2-yl)-4-methylphenyl)-3-methyl-6-azabicyclo[3.1.1]heptane-6-carboxamide]	–	0.03 µM	0.0001 to 1 µM
Cc1ccc(NC(=O)[C@H]2CC[C@@H](C)CN2c2ncccn2)cc1-c1ncccn1 (single isomer, unassigned) [Example 205, cis-5-methyl-N-(4-methyl-3-(pyrimidin-2-yl)phenyl)-1-(pyrimidin-2-yl)piperidine-2-carboxamide]	–	0.3 µM	0.0001 to 1 µM
C[C@@H]1CC2C[C@H](C1)N2C(=O)Nc1ccc(Cl)c(-c2cccnn2)c1 [Example 64, cis-N-(4-chloro-3-pyridazin-3-ylphenyl)-3-methyl-6-azabicyclo[3.1.1]heptane-6-carboxamide]	–	0.1 µM	0.0001 to 1 µM
Cc1cc(F)c(NC(=O)N2C3CC2CN(CC(F)(F)F)C3)cc1-c1ccccn1 [Example 3, N-(2-Fluoro-4-methyl-5-(pyridin-2-yl)phenyl)-3-(2,2,2-trifluoroethyl)-3,6-diazabicyclo[3.1.1]heptane-6-carboxamide]	1 to 10 µM	1.2 µM	–
Cc1ccc(NC(=O)[C@@H]2CC2(F)F)cc1-c1cc(C#N)ccn1 [Example 157, (1S)-N-[3-(4-cyanopyridin-2-yl)-4-methylphenyl]-2,2-difluorocyclopropane-1-carboxamide]	> 10 µM	38 µM	–
COC(C)[C@@]12CC(C[C@@H](C)C1)N2C(=O)Nc1ccc(C(F)(F)F)c(-c2nccnn2)c1 (single isomer, unassigned) [Example 210, cis-N-(3-(1,2,4-triazin-3-yl)-4-(trifluoromethyl)phenyl)-1-(1-methoxyethyl)-3-methyl-6-azabicyclo[3.1.1]heptane-6-carboxamide]	> 10 µM	> 50 µM	–
Cc1ccc(NC(=O)[C@H]2C[C@@H](c3ccccc3)CN2c2ncccn2)cc1-c1ncc(F)cn1 [Example 319]	1 to 10 µM	6.7 µM	–
Cc1ccc(NC(=O)N2CCC3CC3CC2)cc1-c1ncc(F)cn1 (centres unmarked) [Example 300, N-(3-(5-fluoropyrimidin-2-yl)-4-methylphenyl)-4-azabicyclo[5.1.0]octane-4-carboxamide]	1 to 10 µM	1.2 µM	–
COCCOCc1ccnc(-c2cc(NC(=O)N3[C@@H]4C[C@@H](C)C[C@H]3C4)ccc2C)n1 [Example 243, cis-N-[3-[4-(2-methoxyethoxymethyl)pyrimidin-2-yl]-4-methylphenyl]-3-methyl-6-azabicyclo[3.1.1]heptane-6-carboxamide]	1 to 10 µM	1.1 µM	–
COC(=O)N1C[C@@H]2C[C@H]1CN2C(=O)Nc1ccc(C)c(-c2ccccn2)c1 [Example 1, (1S,4S)-Methyl 5-((4-methyl-3-(pyridin-2-yl)phenyl)carbamoyl)-2,5-diazabicyclo[2.2.1]heptane-2-carboxylate]	> 10 µM	23 µM	–
Cc1ccc(NC(=O)[C@@H]2CC2(F)F)cc1-c1ccc(C#N)cn1 [Example 158, (1S)-N-[3-(5-cyanopyridin-2-yl)-4-methylphenyl]-2,2-difluorocyclopropane-1-carboxamide]	> 10 µM	37 µM	–
